How the values were obtained:
panelists = test: Cooling intensity: panel tasting of aqueous solutions against menthol at 2 ppm; assay type: in vivo, human; settings: for Concentration: aqueous solution with cooling intensity similar to or slightly higher than menthol at 2 ppm, tasted by small group of panelists
panelist = test: Application in toothpaste: cooling sensation after brushing; assay type: in vivo, human; settings: toothgel base with 0.10 g of 10% by weight ethanol solution and 0.30 g saccharin; teeth brushed, mouth rinsed with water
Protocol: 0.10 g of (1R,2S,5R)—N-(2-hydroxy-3-phenoxypropyl)-2-isopropyl-5-methylcyclohexane-carboxamide (at 10% by weight solved in ethanol) and 0.30 g saccharin were mixed in a toothgel base.
A piece of the thus prepared toothpaste was put on a toothbrush and a panelist's teeth were brushed. The mouth was rinsed with water and the water spat out. […] The cooling sensation was perceived for over 50 minutes.

SMILES	Concentration (panelists) [ppm]	also measured
COCCNC(=O)[C@@H]1C[C@H](C)CC[C@H]1C(C)C [(1R,2S,5R)-2-isopropyl-N-(2-methoxyethyl)-5-methylcyclohexanecarboxamide]	1.0	
CC(C)OCCCNC(=O)[C@@H]1C[C@H](C)CC[C@H]1C(C)C [(1R,2S,5R)-N-(3-isopropoxypropyl)-2-isopropyl-5-methylcyclohexanecarboxamide]	0.1	
CC(C)[C@@H]1CC[C@@H](C)C[C@H]1C(=O)NCCCOc1ccccn1 [Ex. 2.5, (1R,2S,5R)-2-isopropyl-5-methyl-N-(3-(pyridin-2-yloxy)propyl)cyclohexane-carboxamide]	0.02	
CC(C)[C@@H]1CC[C@@H](C)C[C@H]1C(=O)NCCOc1ccccc1 [Ex. 2.7, (1R,2S,5R)-2-isopropyl-5-methyl-N-(2-phenoxyethyl)cyclohexanecarboxamide]	0.01	cooling intensity relative to prior art compound (1R,2S,5R)-2-isopropyl-N-(2-methoxyethyl)-5-methylcyclohexane-carboxamide (panelists; compared with the prior art compound): about 100 times higher
Cc1ccccc1OCCCNC(=O)[C@@H]1C[C@H](C)CC[C@H]1C(C)C [Example 1, (1R,2S,5R)-2-isopropyl-5-methyl-N-(3-(o-tolyloxy)propyl)cyclohexane-carboxamide]		melting point: 89.4 to 91.1 °C
CC(C)[C@@H]1CC[C@@H](C)C[C@H]1C(=O)NCC(O)COc1ccccc1 (stereo partly drawn) [Example 2.2, (1R,2S,5R)—N-(2-hydroxy-3-phenoxypropyl)-2-isopropyl-5-methylcyclohexane-carboxamide]		cooling sensation felt by the panelist (panelist): long lasting cooling sensation; duration of perceived cooling sensation (panelist): over 50 minutes
CC1CCC(C(C)C)C(O)C1 (stereo not shown) [I-Menthol]	2.0	
CCNC(=O)C1CC(C)CCC1C(C)C (stereo not shown) [WS-3, N-ethyl p-menthanecarboxamide]	1.5	

Reference: patent US8377422B2, “Carboxamide derivatives having cooling properties” (Givaudan S.A., priority 2007, dated 2013)
